For orientation: EC50 means the concentration giving half of the maximal effect.

Where “and” joins values, the source holds several entries; their conditions need not be identical. Equal values may be shown once. Calls of active or inactive are those of the source.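 The calls were made as follows: active = protection of heart cells from peroxide damage with half-maximal concentration of 20 µM or lower (some results past the limit were not filed as active); inactive = the rest.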

In the experiment the test system is HL-1 cardiomyocytes, H2O2 injury, ATPLite viability, 2 h. Nature of the experiment: cardiomyocyte survival under H2O2 injury – HL-1 cells, peroxide, set 2, SAR follow-up (AID 624460).
As to `COc1cccc(CNC(=O)c2cc(-c3cc(OC)c(OC)c(OC)c3)nc3ccccc23)c1`, the EC50 was 10.7 µM (inactive).
With `CCOC(=O)c1cccc(NC(=O)c2cc(-c3cc(OC)c(OC)c(OC)c3)nc3ccccc23)c1` the figure was 3.15 µM; with `COc1ccc(-c2cc(C(=O)Nc3cccc(C(C)=O)c3)c3ccccc3n2)cc1`, > 79 µM (inactive).
In the case of `COc1cc(-c2cc(C(=O)Nc3ccc(C(C)=O)cc3)c3ccccc3n2)cc(OC)c1OC`, the EC50 was 9.93 µM.
Regarding `COc1ccc2c(c1OC)C(=O)N1c3ccccc3C(=O)N(c3cccc(Br)c3)C21` (stereo not drawn), the EC50 was 3.29 µM and > 79 µM (inactive).
With `CCN(CC(=O)Nc1ccc(OC)cc1)C(=O)c1cc(-c2cccs2)nn1-c1ccccc1` the figure was 70.2 µM (inactive) and > 79 µM (inactive).
With `CCN(CC(=O)Nc1ccccc1)C(=O)c1cc(-c2cccs2)nn1-c1ccccc1`, the EC50 was > 79 µM (inactive).
With `COc1ccc(-c2cc(C(=O)Nc3cccc(C(C)=O)c3)c3ccccc3n2)cc1OC`, the EC50 was > 79 µM (inactive).
Regarding `COc1ccc(NC(=O)c2cc(-c3cc(OC)c(OC)c(OC)c3)nc3ccccc23)cc1`, the EC50 was 10.2 µM (inactive).
With `COc1cccc(CNC(=O)c2cc(-c3ccc(OC)c(OC)c3)nc3ccccc23)c1` the figure was 10.6 µM (inactive); with `COc1cc(-c2cc(C(=O)Nc3ccccc3)c3ccccc3n2)cc(OC)c1OC`, > 79 µM (inactive); with `COc1ccc(N2C(=O)c3ccccc3N3C(=O)c4c(ccc(OC)c4OC)C23)cc1` (stereo not drawn), 23.5 µM (inactive).
On to `COc1ccc2c(c1OC)C(=O)N1c3ccccc3C(=O)N(c3cccc(C(F)(F)F)c3)C21` (stereo not drawn), for which the EC50 is > 79 µM (inactive).
In the case of `COc1ccc2c(c1OC)C(=O)N1c3ccccc3C(=O)N(c3cccc(F)c3)C21` (stereo not drawn), the EC50 was 34.7 µM (inactive).
With `COc1cc(-c2cc(C(=O)Nc3cccc(C)c3)c3ccccc3n2)cc(OC)c1OC` the figure was > 79 µM (inactive).
In the case of `COc1ccc2c(c1OC)C(=O)N1c3ccccc3C(=O)N(Cc3ccccc3Cl)C21` (stereo not drawn), the EC50 is > 79 µM (inactive).
As to `COc1cccc(N2C(=O)c3ccccc3N3C(=O)c4c(ccc(OC)c4OC)C23)c1` (stereo not drawn), the EC50 is > 79 µM (inactive).
Then `COc1ccc2c(c1OC)C(=O)N1c3ccccc3C(=O)N(c3ccc(C)cc3)C21` (stereo not drawn), with > 79 µM (inactive); and `COc1cc(-c2cc(C(=O)Nc3cccc(Cl)c3)c3ccccc3n2)cc(OC)c1OC`, with > 79 µM (inactive); and `COc1cc(-c2cc(C(=O)Nc3cccc(F)c3)c3ccccc3n2)cc(OC)c1OC`, with 16.4 µM (inactive).
With `CCN(CC(=O)Nc1ccc(C)cc1)C(=O)c1cc(-c2cccs2)nn1-c1ccccc1` the figure was > 79 µM (inactive); with `COc1cc(-c2cc(C(=O)Nc3cccc(C(C)=O)c3)c3ccccc3n2)cc(OC)c1OC`, 1.47 µM and 8.54 µM.
On to `COc1ccc2c(c1OC)C(=O)N1c3ccccc3C(=O)N(c3ccc(Br)cc3)C21` (stereo not drawn), for which the EC50 was > 79 µM (inactive).
Then `COc1cc(-c2cc(C(=O)Nc3cccc(C(C)=O)c3)c3cc(Cl)ccc3n2)cc(OC)c1OC`, with 3.26 µM; and `COc1ccc2c(c1OC)C(=O)N1c3ccccc3C(=O)N(c3ccc(C(C)(C)C)cc3)C21` (stereo not drawn), with > 79 µM (inactive).
With `COc1ccc2c(c1OC)C(=O)N1c3ccccc3C(=O)N(c3cccc(Cl)c3)C21` (stereo not drawn) the figure was > 79 µM (inactive).
As for `COc1cccc(N2C(=O)c3ccccc3N3C(=O)c4ccccc4C23)c1` (stereo not drawn), the EC50 is > 79 µM (inactive).
With `COc1cccc(NC(=O)c2cc(-c3cc(OC)c(OC)c(OC)c3)nc3ccccc23)c1` the figure was 9.39 µM; with `COc1ccc2c(c1OC)C(=O)N1c3ccccc3C(=O)N(c3cccc(C)c3)C21` (stereo not drawn), 60.3 µM (inactive); with `CCN(CC(=O)Nc1ccc(OC)cc1)C(=O)c1cc(-c2cc(OC)c(OC)c(OC)c2)nc2ccccc12`, 9.39 µM.
Take `COc1ccc2c(c1OC)C(=O)N1c3ccccc3C(=O)N(c3ccccc3)C21` (stereo not drawn): the EC50 is > 79 µM (inactive).
With `CCN(CC(=O)Nc1ccc(F)cc1)C(=O)c1cc(-c2cccs2)nn1-c1ccccc1` the figure was > 79 µM (inactive); with `COc1cccc(-c2cc(C(=O)Nc3cccc(C(C)=O)c3)c3ccccc3n2)c1`, > 79 µM (inactive); with `O=C1c2ccccc2N2C(=O)c3ccccc3C2N1c1ccccc1` (stereo not drawn), > 79 µM (inactive).
Regarding `COc1ccc2c(c1OC)C(=O)N1c3ccccc3C(=O)N(Cc3cccc(Cl)c3)C21` (stereo not drawn), the EC50 is > 79 µM (inactive).
Take `CC(=O)c1cccc(NC(=O)c2cc(-c3ccccc3)nc3ccccc23)c1`: the EC50 was > 79 µM (inactive).
With `O=C1c2ccccc2N2C(=O)c3ccccc3C2N1c1cccc(Br)c1` (stereo not drawn), the EC50 is > 79 µM (inactive).
With `COc1cc(-c2cc(C(=O)Nc3cccc(C(F)(F)F)c3)c3ccccc3n2)cc(OC)c1OC` the figure was > 79 µM (inactive).

Values taken from PubChem BioAssay AID624460 (Sanford-Burnham Center for Chemical Genomics, 2012).
